Laboratory results: US9878986B2, “Compounds for selective histone deacetylase inhibitors, and pharmaceutical composition comprising the same” (CHONG KUN DANG PHARMACEUTICAL CORP., priority 2013, dated 2018)

How the values were obtained:
HDAC1 = HDAC1 (Homo sapiens, UniProt Q13547); assay: Test of HDAC activities, HDAC1 Fluorimetric Drug Discovery Assay Kit; assay type: biochemical; parameters: purchased Enzolifesciences BML-AK511; details: samples at 100, 1000, 10000 nM; 37° C. 60 minutes; fluorescence Ex 390, Em 460; read-out: HDAC inhibitory activities, HDAC1
Sequence of HDAC1 (Q13547 whole entry): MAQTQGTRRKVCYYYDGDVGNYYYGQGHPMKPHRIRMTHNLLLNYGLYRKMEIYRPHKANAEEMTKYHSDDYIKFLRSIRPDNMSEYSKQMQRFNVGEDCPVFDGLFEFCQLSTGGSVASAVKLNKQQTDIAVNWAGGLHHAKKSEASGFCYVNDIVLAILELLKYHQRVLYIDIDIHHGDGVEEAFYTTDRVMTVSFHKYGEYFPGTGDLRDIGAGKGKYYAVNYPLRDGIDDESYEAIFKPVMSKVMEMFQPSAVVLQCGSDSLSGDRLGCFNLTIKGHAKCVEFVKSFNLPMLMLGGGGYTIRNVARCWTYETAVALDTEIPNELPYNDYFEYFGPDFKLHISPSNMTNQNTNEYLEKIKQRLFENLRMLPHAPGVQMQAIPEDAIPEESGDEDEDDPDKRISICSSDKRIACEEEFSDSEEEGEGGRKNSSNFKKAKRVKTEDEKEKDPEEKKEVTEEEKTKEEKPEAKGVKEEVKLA
Summary of the method: (§1)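 HDAC1 tested at 100, 1000 and 10000 nM; recombinant human HDAC6 at 0.1, 1, 10, 100 and 1000 nM. Reaction 60 min at 37° C, then developer for 30 min at 37° C; fluorescence read at Ex 390/Em 460.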

HDAC 6 = target: T1, HDAC 6 (Homo sapiens, UniProt Q9UBN7); assay: Test of HDAC activities, HDAC6 (fluorimetric); assay type: biochemical; parameters: purchased Calbiochem 382180; details: samples at 0.1, 1, 10, 100, 1000 nM; 37° C. 60 minutes; fluorescence Ex 390, Em 460; read-out: HDAC inhibitory activities, HDAC6
T1 sequence (Q9UBN7 1-1215): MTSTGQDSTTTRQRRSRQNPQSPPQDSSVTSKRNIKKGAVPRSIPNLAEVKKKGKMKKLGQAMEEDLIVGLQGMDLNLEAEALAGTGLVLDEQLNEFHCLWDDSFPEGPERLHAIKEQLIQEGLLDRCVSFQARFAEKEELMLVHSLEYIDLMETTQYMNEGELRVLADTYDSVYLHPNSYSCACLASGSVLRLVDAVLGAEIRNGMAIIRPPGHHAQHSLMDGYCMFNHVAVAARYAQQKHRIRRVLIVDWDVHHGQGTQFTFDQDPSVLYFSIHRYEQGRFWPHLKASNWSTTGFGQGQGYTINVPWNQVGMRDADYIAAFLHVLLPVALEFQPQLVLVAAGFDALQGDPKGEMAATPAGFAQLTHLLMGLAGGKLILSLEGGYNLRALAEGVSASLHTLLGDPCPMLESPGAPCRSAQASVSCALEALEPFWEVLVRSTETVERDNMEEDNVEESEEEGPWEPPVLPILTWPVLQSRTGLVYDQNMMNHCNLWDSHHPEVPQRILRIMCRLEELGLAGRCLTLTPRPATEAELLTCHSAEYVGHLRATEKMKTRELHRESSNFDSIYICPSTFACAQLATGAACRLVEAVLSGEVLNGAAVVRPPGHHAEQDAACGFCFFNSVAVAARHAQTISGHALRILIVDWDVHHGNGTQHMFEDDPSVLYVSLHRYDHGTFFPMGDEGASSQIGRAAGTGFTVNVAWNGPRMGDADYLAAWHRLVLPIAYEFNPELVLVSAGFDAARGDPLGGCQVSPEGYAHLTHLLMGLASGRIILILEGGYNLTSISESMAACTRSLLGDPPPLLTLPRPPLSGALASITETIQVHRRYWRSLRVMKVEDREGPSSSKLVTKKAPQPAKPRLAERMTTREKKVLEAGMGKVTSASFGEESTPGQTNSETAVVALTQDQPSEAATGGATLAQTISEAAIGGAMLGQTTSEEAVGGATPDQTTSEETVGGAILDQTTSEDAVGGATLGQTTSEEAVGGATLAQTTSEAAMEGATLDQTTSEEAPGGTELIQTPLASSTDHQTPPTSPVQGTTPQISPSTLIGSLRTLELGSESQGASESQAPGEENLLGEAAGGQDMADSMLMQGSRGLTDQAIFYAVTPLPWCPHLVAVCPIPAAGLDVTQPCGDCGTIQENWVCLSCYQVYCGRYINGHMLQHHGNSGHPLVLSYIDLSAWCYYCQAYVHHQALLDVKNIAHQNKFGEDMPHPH
Summary of the method: as §1

| Structure (SMILES) | IC50 (HDAC1) | IC50 (HDAC 6) |
| --- | --- | --- |
| CC1CN(C(=O)N(Cc2ccc(C(=O)NO)cc2)c2ncccn2)CC(C)O1 (centres unmarked) [Compound 313, N-(4-(hydroxycarbamoyl)benzyl)-2,6-dimethyl-N-(pyrimidin-2-yl)morpholine-4-carboxamide] | 35900 nM | 7 nM |
| O=C(NO)c1ccc(CN(C(=O)N2CCN(C(=O)C3CC3)CC2)c2cccc(-c3ccc4c(c3)OCO4)c2)cc1 [Compound 470, N-(3-(benzo[d][1,3]dioxol-5-yl)phenyl)-4-(cyclopropanecarbonyl)-N-(4-(hydroxycarbamoyl)benzyl)piperazine-1-carboxamide] | 635 nM | 1 nM |
| O=C(NO)c1ccc(CN(C(=O)N2CC[C@@H](F)C2)c2cccc(C(F)(F)F)c2)cc1 [Compound 495, (R)-3-fluoro-N-(4-(hydroxycarbamoyl)benzyl)-N-(3-(trifluoromethyl)phenyl)pyrrolidine-1-carboxamide] | 3330 nM | 11 nM |
| CC(C)(F)CN1CCN(C(=O)N(Cc2ccc(C(=O)NO)cc2)c2cccc(CF)c2)CC1 [Compound 766, 4-(2-fluoro-2-methylpropyl)-N-(3-(fluoromethyl)phenyl)-N-(4-(hydroxycarbamoyl)benzyl)piperazine-1-carboxamide] | 838 nM | 3 nM |
| O=C(NO)c1ccc(CN(C(=O)N2CCOCC2)c2ccc(Cl)c(C(F)(F)F)c2)cc1 [Compound 391, N-(4-chloro-3-(trifluoromethyl)phenyl)-N-(4-(hydroxycarbamoyl)benzyl)morpholine-4-carboxamide] | 2120 nM | 3 nM |
| CN1CCN(C(=O)N(Cc2ccc(C(=O)NO)cc2)c2cccc(Br)c2)CC1 [Compound 256, N-(3-bromophenyl)-N-(4-(hydroxycarbamoyl)benzyl)-4-methylpiperazine-1-carboxamide] | 148 nM | 1 nM |
| CC(=O)N1CC=C(c2cccc(N(Cc3ccc(C(=O)NO)cc3)C(=O)N3CCOCC3)c2)CC1 [Compound 419, N-(3-(1-acetyl-1,2,3,6-tetrahydropyridin-4-yl)phenyl)-N-(4-(hydroxycarbamoyl)benzyl) morpholine-4-carboxamide] | 460 nM | 5 nM |

More lines, in order of falling IC50 (HDAC1), values ahead:

| IC50 (HDAC1) | IC50 (HDAC 6) | Structure (SMILES) |
| --- | --- | --- |
| 4450 nM | 32 nM | O=C(NO)c1ccc(CN(C(=O)N2CCOCC2)c2cccc(-c3cc(C(F)(F)F)cc(C(F)(F)F)c3)c2)cc1 [Compound 398, N-(3′,5′-bis(trifluoromethyl)biphenyl-3-yl)-N-(4-(hydroxycarbamoyl)benzyl)morpholine-4-carboxamide] |
| 3820 nM | 4 nM | COc1ccccc1N1CCN(C(=O)N(Cc2ccc(C(=O)NO)cc2)c2ccccn2)CC1 [Compound 356, N-(4-(hydroxycarbamoyl)benzyl)-4-(2-methoxyphenyl)-N-(pyridin-2-yl)piperazine-1-carboxamide] |
| 2340 nM | 5 nM | O=C(NO)c1ccc(CN(C(=O)N2CCN(Cc3ccccc3)CC2)c2ccccn2)cc1 [Compound 355, 4-benzyl-N-(4-(hydroxycarbamoyl)benzyl)-N-(pyridin-2-yl)piperazine-1-carboxamide] |
| 1740 nM | 4 nM | Cc1ccc(N(Cc2ccc(C(=O)NO)cc2)C(=O)N2CCCCC2)c(F)c1 [Compound 438, N-(2-fluoro-4-methylphenyl)-N-(4-(hydroxycarbamoyl)benzyl)piperidine-1-carboxamide] |
| 1170 nM | 36 nM | O=C(NO)c1ccc(CN(C(=O)N2CC[C@@H](F)C2)c2ccc(C(F)(F)F)cc2)cc1 [Compound 520, (R)-3-fluoro-N-(4-(hydroxycarbamoyl)benzyl)-N-(4-(trifluoromethyl)phenyl)pyrrolidine-1-carboxamide] |
| 161 nM | 1.4 nM | O=C(NO)c1ccc(CN(C(=O)N2CCOCC2)c2cccc(F)c2)cc1 [Compound 530, N-(3-fluorophenyl)-N-(4-(hydroxycarbamoyl)benzyl)morpholine-4-carboxamide] |
